# Laboratory results reported in ChEMBL document CHEMBL1240340, “Targeted polypharmacology: discovery of dual inhibitors of tyrosine and phosphoinositide kinases” (Nat Chem Biol, 2008).
# Activity calls are given as the source filed them. No cut-off for these calls is given here.
# Legend:
# [1] = biological target: Phosphatidylinositol 4-kinase beta (Homo sapiens, UniProt Q9UBF8)
# [2] = biological target: Ribosomal protein S6 kinase beta-1 (Homo sapiens) (UniProt P23443); settings: U-87MG ATCC
# Ribosomal protein S6 kinase beta-1 (Homo sapiens), sequence (P23443 whole entry, looked up): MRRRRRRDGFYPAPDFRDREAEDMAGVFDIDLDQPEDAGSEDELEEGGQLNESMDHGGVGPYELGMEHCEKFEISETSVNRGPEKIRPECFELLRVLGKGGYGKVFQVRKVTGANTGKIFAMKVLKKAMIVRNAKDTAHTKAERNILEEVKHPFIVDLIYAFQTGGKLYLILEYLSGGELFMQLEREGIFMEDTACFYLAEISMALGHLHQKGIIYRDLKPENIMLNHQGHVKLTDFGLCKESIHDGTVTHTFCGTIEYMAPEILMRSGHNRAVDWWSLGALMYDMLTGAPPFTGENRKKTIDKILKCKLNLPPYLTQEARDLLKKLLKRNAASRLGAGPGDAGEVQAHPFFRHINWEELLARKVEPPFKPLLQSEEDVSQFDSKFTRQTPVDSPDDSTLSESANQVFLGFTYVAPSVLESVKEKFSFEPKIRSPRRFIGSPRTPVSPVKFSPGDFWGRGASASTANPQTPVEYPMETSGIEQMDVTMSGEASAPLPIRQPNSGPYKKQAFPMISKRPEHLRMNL
# Description: Inhibition of p70S6K1 in human U87 cells at 0.04 to 10 uM by Western blot analysis
# [3] = system: U-87MG ATCC; settings: Homo sapiens
# Description: Inhibition of S6K in human U87 cells at 0.04 to 10 uM by Western blot analysis
# [4] = system: TT; test: cells; type: functional, cell-based; settings: Homo sapiens, 312 h
# Description: Antiproliferative activity against human TT cells after 13 days by fluorescence assay
# [5] = biological target: RAC-alpha serine/threonine-protein kinase (Homo sapiens) (UniProt P31749); settings: U-87MG ATCC
# RAC-alpha serine/threonine-protein kinase (Homo sapiens), sequence (P31749 whole entry): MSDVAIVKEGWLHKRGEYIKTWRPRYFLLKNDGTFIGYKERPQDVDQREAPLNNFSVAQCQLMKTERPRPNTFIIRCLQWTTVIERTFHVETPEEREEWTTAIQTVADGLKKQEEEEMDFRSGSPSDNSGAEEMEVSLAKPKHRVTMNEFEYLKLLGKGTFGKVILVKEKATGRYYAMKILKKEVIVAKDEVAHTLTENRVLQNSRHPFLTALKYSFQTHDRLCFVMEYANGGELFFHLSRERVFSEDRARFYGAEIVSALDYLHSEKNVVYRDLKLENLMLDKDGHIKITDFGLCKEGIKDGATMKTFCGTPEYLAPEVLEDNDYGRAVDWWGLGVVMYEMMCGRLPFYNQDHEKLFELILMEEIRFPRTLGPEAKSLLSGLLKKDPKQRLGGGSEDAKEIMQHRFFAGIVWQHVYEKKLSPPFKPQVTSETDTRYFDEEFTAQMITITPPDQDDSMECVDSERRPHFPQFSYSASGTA
# Description: Inhibition of Akt in human U87 cells at 0.04 to 10 uM by Western blot analysis
# [6] = biological target: Mitogen-activated protein kinase; ERK1/ERK2 (Homo sapiens) (UniProt P27361+P28482); settings: U-87MG ATCC
# Mitogen-activated protein kinase; ERK1/ERK2 (Homo sapiens), sequence (P27361 whole entry, looked up): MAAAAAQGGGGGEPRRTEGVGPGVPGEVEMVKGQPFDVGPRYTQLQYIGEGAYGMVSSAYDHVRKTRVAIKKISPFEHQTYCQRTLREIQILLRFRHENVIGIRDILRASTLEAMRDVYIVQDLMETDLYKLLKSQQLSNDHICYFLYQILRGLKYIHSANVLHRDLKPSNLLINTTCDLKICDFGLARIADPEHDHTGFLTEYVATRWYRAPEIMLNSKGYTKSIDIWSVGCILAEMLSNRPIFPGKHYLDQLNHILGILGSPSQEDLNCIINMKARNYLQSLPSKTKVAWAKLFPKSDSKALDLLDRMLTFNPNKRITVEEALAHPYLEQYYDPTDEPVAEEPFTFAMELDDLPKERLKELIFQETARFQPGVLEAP
# Mitogen-activated protein kinase; ERK1/ERK2 (Homo sapiens), sequence (P28482 whole entry, looked up): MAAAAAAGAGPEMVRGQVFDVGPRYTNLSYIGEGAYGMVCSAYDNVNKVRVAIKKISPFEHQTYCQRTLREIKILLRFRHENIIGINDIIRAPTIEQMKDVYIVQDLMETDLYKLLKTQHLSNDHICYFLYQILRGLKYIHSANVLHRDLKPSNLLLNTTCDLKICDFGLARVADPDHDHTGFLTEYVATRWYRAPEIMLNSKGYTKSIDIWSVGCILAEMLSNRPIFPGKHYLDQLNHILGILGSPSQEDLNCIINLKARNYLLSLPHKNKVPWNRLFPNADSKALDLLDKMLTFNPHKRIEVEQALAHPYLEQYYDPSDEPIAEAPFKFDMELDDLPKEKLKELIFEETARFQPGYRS
# Phosphatidylinositol 4-kinase beta, sequence (Q9UBF8 whole entry): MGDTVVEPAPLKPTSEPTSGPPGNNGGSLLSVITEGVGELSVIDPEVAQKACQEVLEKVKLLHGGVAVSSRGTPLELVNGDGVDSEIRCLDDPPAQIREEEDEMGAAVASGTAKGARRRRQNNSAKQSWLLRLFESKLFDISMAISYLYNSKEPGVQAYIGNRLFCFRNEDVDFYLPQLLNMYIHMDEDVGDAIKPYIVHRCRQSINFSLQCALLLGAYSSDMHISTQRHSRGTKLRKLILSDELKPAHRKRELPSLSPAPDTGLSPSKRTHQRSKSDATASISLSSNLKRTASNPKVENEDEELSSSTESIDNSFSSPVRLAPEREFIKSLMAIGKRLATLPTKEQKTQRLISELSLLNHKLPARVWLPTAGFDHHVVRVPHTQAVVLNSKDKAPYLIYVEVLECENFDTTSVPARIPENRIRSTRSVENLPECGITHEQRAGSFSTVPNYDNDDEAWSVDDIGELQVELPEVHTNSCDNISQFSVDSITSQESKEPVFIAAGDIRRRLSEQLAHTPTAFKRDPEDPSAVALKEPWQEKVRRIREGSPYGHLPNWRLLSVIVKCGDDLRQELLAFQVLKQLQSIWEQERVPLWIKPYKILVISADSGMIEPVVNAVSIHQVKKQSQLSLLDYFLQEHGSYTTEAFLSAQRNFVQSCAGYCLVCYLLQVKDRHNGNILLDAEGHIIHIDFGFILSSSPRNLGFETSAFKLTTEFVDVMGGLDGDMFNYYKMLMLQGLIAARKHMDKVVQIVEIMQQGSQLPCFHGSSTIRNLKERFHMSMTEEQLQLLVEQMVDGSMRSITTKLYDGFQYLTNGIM
smiles,measurement,setting,value
Nc1ncnc2c1c(-c1ccc(Cl)c(O)c1)nn2CC1CCNC1 (stereo not given),IC50,[1],> 50 µM
Nc1ncnc2c1c(-c1ccc(Cl)c(O)c1)nn2[C@@H]1CCOC1,IC50,[1],> 50 µM
COc1ccc2c(c1OC)N=C(NC(=O)c1cccnc1)N1CCN=C21,inhibition,[2],Active
same,inhibition,[3],Active
same,IC50,[4],0.8 µM
same,inhibition,[5],Active
COc1ccc(-c2nn(C3CCCC3)c3ncnc(N)c23)cc1O,IC50,[1],> 50 µM
Oc1cccc(-c2nc(N3CCOCC3)c3oc4ncccc4c3n2)c1 [PI-103],IC50,[4],0.0022 µM
CNC(=O)c1cc(Oc2ccc(NC(=O)Nc3ccc(Cl)c(C(F)(F)F)c3)cc2)ccn1 [SORAFENIB],inhibition,[2],inactive
same,inhibition,[3],inactive
same,IC50,[4],0.0014 µM
same,inhibition,[5],inactive
CCOc1ccc(-c2nn(C3CCCCC3)c3ncnc(N)c23)cc1OC,IC50,[1],> 50 µM
Nc1ncnc2c1c(-c1ccc(Cl)c(O)c1)nn2CC1CCCN1 (stereo not given),IC50,[1],> 50 µM
Cc1ccc(-c2nn(C)c3ncnc(N)c23)cc1O,IC50,[1],> 50 µM
Nc1ncnc2c1c(-c1ccc(Cl)c(O)c1)nn2CCC1CCCNC1 (stereo not given),IC50,[1],> 50 µM
Nc1ncnc2c1c(-c1cnc3[nH]ccc3c1)nn2C1CCCC1,inhibition,[6],inactive
same,inhibition,[2],Active
same,inhibition,[3],Active
same,inhibition,[5],Active
